According to ChEMBL document CHEMBL4330130, “Synthesis of amide and sulfonamide substituted N-aryl 6-aminoquinoxalines as PFKFB3 inhibitors with improved physicochemical properties” (Bioorg Med Chem Lett, 2019):
Values after ≈ are worked out from the molar mass of the structure shown.

Test: Kinetic solubility of the compound in pH 8 Tris buffer at 500 uM after 90 by UV-Vis absorbance analysis
Assay type: physicochemical
Details: read-out: Kinetic_solubility

SMILES	solubility kinetic at 500 µM [µg/mL]
CN1CCC(NC(=O)c2ccncc2Nc2cc(-c3ccc4sc(N)nc4c3)c3nccnc3c2)C1 (stereo not given)	241 (≈ 485 µM)
Cc1csc2ccc(-c3cc(Nc4cnccc4C(=O)N[C@H]4CCN(C)C4)cc4nccnc34)cc12	80 (≈ 162 µM)
CN1CCC(NC(=O)c2ccncc2Nc2cc(-c3ccc4ccn(C)c4c3)c3nccnc3c2)CC1=O (stereo not given)	48 (≈ 94.9 µM)
CC(=O)N1CC(NC(=O)c2ccncc2Nc2cc(-c3ccc4ccn(C)c4c3)c3nccnc3c2)C1	244 (≈ 496 µM)
CN1CCC(CNS(=O)(=O)c2ccccc2Nc2cc(-c3ccc4ccn(C)c4c3)c3nccnc3c2)C1 (stereo not given)	35 (≈ 66.5 µM)
CN(C)S(=O)(=O)c1ccccc1Nc1cc(-c2ccc3ccn(C)c3c2)c2nccnc2c1	2 (≈ 4.37 µM)
CN(Cc1cncnc1)S(=O)(=O)c1ccccc1Nc1cc(-c2ccc3ccn(C)c3c2)c2nccnc2c1	3 (≈ 5.6 µM)
Cn1cc(NC(=O)c2ccncc2Nc2cc(-c3ccc4ccn(C)c4c3)c3nccnc3c2)cn1	2 (≈ 4.21 µM)
CN(C)C(=O)c1ccncc1Nc1cc(-c2ccc3ccn(C)c3c2)c2nccnc2c1	175 (≈ 414 µM)
CC(=O)N1CCOC(CNC(=O)c2ccncc2Nc2cc(-c3ccc4ccn(C)c4c3)c3nccnc3c2)C1 (stereo not given)	268 (≈ 500 µM)
Cn1ccc2ccc(-c3cc(Nc4cnccc4C(=O)Nc4cncnc4)cc4nccnc34)cc21	4 (≈ 8.47 µM)
CNC(=O)c1ccncc1Nc1cc(-c2ccc3ccn(C)c3c2)c2nccnc2c1	4 (≈ 9.79 µM)
CNS(=O)(=O)c1ccccc1Nc1cc(-c2ccc3ccn(C)c3c2)c2nccnc2c1	2 (≈ 4.51 µM)
CN1CCC(NS(=O)(=O)c2ccccc2Nc2cc(-c3ccc4ccn(C)c4c3)c3nccnc3c2)C1 (stereo not given)	26 (≈ 50.7 µM)
Cn1ccc2ccc(-c3cc(Nc4ccccc4S(=O)(=O)NCc4cncnc4)cc4nccnc34)cc21	3 (≈ 5.75 µM)
Cn1ccc2ccc(-c3cc(Nc4cnccc4C(=O)NC4CCNC(=O)C4)cc4nccnc34)cc21 (stereo not given)	242 (≈ 492 µM)
CN1CCC(N(C)C(=O)c2ccncc2Nc2cc(-c3ccc4ccn(C)c4c3)c3nccnc3c2)C1 (stereo not given)	245 (≈ 498 µM)
CN1CCCC(NS(=O)(=O)c2ccccc2Nc2cc(-c3ccc4ccn(C)c4c3)c3nccnc3c2)C1 (stereo not given)	9 (≈ 17.1 µM)

Second part, the compound after the results:

solubility kinetic at 500 µM [µg/mL]	SMILES
170 (≈ 367 µM)	CN1CC(NC(=O)c2ccncc2Nc2cc(-c3ccc4ccn(C)c4c3)c3nccnc3c2)C1
246 (≈ 500 µM)	CN1CCC(CNC(=O)c2ccncc2Nc2cc(-c3ccc4ccn(C)c4c3)c3nccnc3c2)C1 (stereo not given)
253 (≈ 500 µM)	CN1CC(NC(=O)c2ccncc2Nc2cc(-c3ccc4ccn(C)c4c3)c3nccnc3c2)CCC1=O (stereo not given)
40 (≈ 101 µM)	Cn1ccc2ccc(-c3cc(Nc4cnccc4C(N)=O)cc4nccnc34)cc21
239 (≈ 484 µM)	Cn1ccc2ccc(-c3cc(Nc4cnccc4C(=O)NCC4COCCN4)cc4nccnc34)cc21 (stereo not given)
213 (≈ 410 µM)	CC(=O)N1CCC(NC(=O)c2ccncc2Nc2cc(-c3ccc4ccn(C)c4c3)c3nccnc3c2)CC1
233 (≈ 479 µM)	Cn1ccc2ccc(-c3cc(Nc4cnccc4C(=O)NCc4cncnc4)cc4nccnc34)cc21
212 (≈ 408 µM)	CC(=O)N1CCCC(NC(=O)c2ccncc2Nc2cc(-c3ccc4ccn(C)c4c3)c3nccnc3c2)C1 (stereo not given)
229 (≈ 480 µM)	CN1CCC(NC(=O)c2ccncc2Nc2cc(-c3ccc4ccn(C)c4c3)c3nccnc3c2)C1 (stereo not given)
246 (≈ 500 µM)	CN1CCC(NC(=O)c2ccncc2Nc2cc(-c3ccc4ccn(C)c4c3)c3nccnc3c2)CC1
2 (≈ 3.79 µM)	Cn1ccc2ccc(-c3cc(Nc4ccccc4S(=O)(=O)NCC4CCOCC4)cc4nccnc34)cc21
127 (≈ 260 µM)	Cn1cc(CNC(=O)c2ccncc2Nc2cc(-c3ccc4ccn(C)c4c3)c3nccnc3c2)cn1
2 (≈ 3.82 µM)	Cn1cc(CNS(=O)(=O)c2ccccc2Nc2cc(-c3ccc4ccn(C)c4c3)c3nccnc3c2)cn1
246 (≈ 500 µM)	CN1CCCC(NC(=O)c2ccncc2Nc2cc(-c3ccc4ccn(C)c4c3)c3nccnc3c2)C1 (stereo not given)
185 (≈ 373 µM)	CN1CCC(NC(=O)c2ccncc2Nc2cc(-c3cc(F)c4ccn(C)c4c3)c3nccnc3c2)C1 (stereo not given)
6 (≈ 14 µM)	Cn1ccc2ccc(-c3cc(Nc4ccccc4S(N)(=O)=O)cc4nccnc34)cc21
252 (≈ 498 µM)	CC(=O)N1CC(CNC(=O)c2ccncc2Nc2cc(-c3ccc4ccn(C)c4c3)c3nccnc3c2)C1
2 (≈ 4.67 µM)	Cn1ccc2ccc(-c3cc(Nc4ccccc4S(C)(=O)=O)cc4nccnc34)cc21
254 (≈ 500 µM)	Cn1ccc2ccc(-c3cc(Nc4ccccc4S(=O)(=O)Nc4cncnc4)cc4nccnc34)cc21
5 (≈ 10 µM)	Cn1ccc2ccc(-c3cc(Nc4ccccc4S(=O)(=O)N4CCOCC4)cc4nccnc34)cc21
253 (≈ 500 µM)	CC(=O)N1CCC(NC(=O)c2ccncc2Nc2cc(-c3ccc4ccn(C)c4c3)c3nccnc3c2)C1 (stereo not given)
79 (≈ 160 µM)	Cc1csc2ccc(-c3cc(Nc4cnccc4C(=O)N[C@@H]4CCN(C)C4)cc4nccnc34)cc12
